According to patent publication US7229785B2, “Fluorescence technique for on-line monitoring of state of hydrogen-producing microorganisms” (priority 2002, dated 2007):

Assays:
C. reinhardtii cells = assay: Inhibitor (KCN, SHAM) effect on rates of dark respiration during sulfur deprivation, Clark electrode; format: cell-based, Chlamydomonas reinhardtii; details: SHAM 4 mM, 5 min, 17% O2
Description: To determine the precise moment of H2-photoproduction onset, we measured the percentage of H2 contained in the gas phase (˜7 ml) on the top of the vessel immediately after anaerobiosis by gas chromatography. The dissolved O2 and redox potential of the medium were also measured. Chlorophyll concentrations were then obtained spectrophotometrically in 95% ethanol cell extracts. The capacity for respiratory O2 consumption was measured with a Clark electrode at 25° C. under aerobic conditions (17% or 170 μM O2) after removing the samples from the culture vessel and equilibrating them with air for 5 minutes.
The PQ pool is further oxidized by dissolved O2 through the action of PQ-oxidase. In the mitochondria, NADH and FADH2 generated by the Krebs Cycle serve as the source of electrons for a membrane-bound electron transport chain with O2 as the final electron acceptor. The cytochrome oxidase transduces the production of 3 ATP molecules per pair of electrons transported. […]. In both cases, O2 is the terminal electron acceptor. The mitochondrial cytochrome oxidase in C reinhardtii is inhibited by KCN, carbon monoxide, and sodium azide, while the alternative oxidase is specifically affected by salicylic hydroxamic acid (SHAM). The putative chloroplast PQ oxidase, on the other hand, is not inhibited by SHAM and only slightly affected by KCN. By measuring the influence of two inhibitors, KCN and SHAM, on the rates of dark respiration, we tried to estimate the relative contributions of each of the three oxidases at different times after sulfur deprivation. The actual contributions of the three oxidases to the scavenging O2 in situ depend on many factors such as their relative KM's for O2 and the rate of diffusion of O2 from the chloroplast to the mitochondria. Thus, the inhibitor studies that follow may not directly reflect the actual situation in the photobioreactor, but they do indicate that changes in the relative contribution of the three oxidases occur over the course of sulfure deprivation.
Contributions to the mitochondrial cytochrome oxidase [CO], mitochondrial alternative oxidase [AO], and chlororespiration [CR] to the total respiration rate of C. reinhardtii cells are also shown during sulfur-deprivation. […].

[1] = test system: sulfur-depleted C. reinhardtii cells; assay: Effect of DCMU on the rate of H2 photoproduction by sulfur-depleted algal cultures; format: cell-based, Chlamydomonas reinhardtii; details: 10 μM DCMU added to culture after H2 gas production has started
Description: […]. DCMU was added to treated cells at the arrow. Time zero in this case represents the time after H2 photoproduction starts.
Chlamydomonas reinhardtii strain Dangeard C137+ was grown in Tris-acetate-phosphate (TAP) medium (pH, 7.0) under continuous cool-white fluorescent light. Late-log cells were pelleted three times by centrifiguation and re-suspended in the same medium, from which inorganic sulfure (TAP-S) was omitted. The cells were incubated under continuous fluorescent illumation (200-250 μE m^−2 s^−1 PAR) in cylindrical reactor vessels (600 ml) with a rotating glass rod and Teflon impellers for mixing. A magnetic bar was attached at the bottom of the rod to couple it to an external stirring motor, and the rate of mixing was 60-80 rpm. The vessels were sealed using a silicon stopper with an outlet tube inserted through it for gas collection. The gas produced by the cells was collected in an inverted graduated glass cylinder by water displacement.
The direct involvement of PSII-catalyzed water oxidation activity by sulfur-deprived cells was further investigated using PAM fluorescence techniques.

## O=C(NO)c1ccccc1O [SHAM, salicylic hydroxamic acid]
C. reinhardtii cells; During H2 production
  % SHAM inhibition (% AO) of respiration: 38%
C. reinhardtii cells; End of H2 production
  % SHAM inhibition (% AO) of respiration: 100%
C. reinhardtii cells; Start of H2 production phase
  % SHAM inhibition (% AO) of respiration: 13%
C. reinhardtii cells; Start of anaerobic phase
  % SHAM inhibition (% AO) of respiration: 0%
C. reinhardtii cells; Start of sulfur depletion
  % SHAM inhibition (% AO) of respiration: 25%

## DCMU
[1]
  decrease of the rate of H2 gas production: 80%
